# Bridge positions count the residues as written; N and C are the ends. Square brackets hold non-standard residues; d marks the D form. Peptide text beside a SMILES is read from it. * marks the point of attachment. 2Nal = N[C@@H](Cc1ccc2ccccc2c1)C(=O)O; Benzoyl(4-F) = O=C(c1ccc(F)cc1)*; Cit = NC(=O)NCCC[C@H](N)C(=O)O
# Columns and labels:
# U87 glioma cells = test: Survival and death of U87 glioma cells (Annexin V); format: cell-based
# Experimental: U87 cells were treated with 4F-benzoyl-TN14003 and tested for their survival (FIG. 15A) and death (FIG. 15B).
# [1] = tested on: human primary keratinocytes; test: Proliferation and survival of keratinocytes; format: cell-based; conditions: AMD-3100 20 μM; 4F-benzoyl-TN14003 4-20 μM
# Experimental: The effect of CXCR4 antagonists on the survival of freshly isolated normal CD4^+ T cells, CD34^+ stem cells and keratinocytes was examined. The proliferation and survival of keratinocytes was not inhibited by CXCR4 antagonists AMD-3100 (20 μM) and 4F-benzoyl-TN14003 (4-20 μM) or the natural ligand CXCL12 (FIG. 2C). The proliferation and survival of CD4^+ T cells was not inhibited by CXCR4 antagonists AMD-3100 (20 μM).
# HL-60 cells = test: Proliferation and apoptosis (Annexin V) of HL-60 cells; format: cell-based, human; conditions: 4F-benzoyl-TN14003 4-20 μM
# human NB4 leukemic cells = test: NB4 leukemic xenograft model; format: in vivo, nude mice
# Experimental: Acute promyelocytic leukemia (APL)-derived NB4 cell is extensively used as an in vitro and in vivo model system for studying human leukemia. To investigate the therapeutic anti-tumor potential of the CXCR4 antagonist 4F-benzoyl-TN14003 against human leukemic cells, 10×10^6 NB4 cells were injected subcutaneously (s.c) into immunodeficient nude mice (n=5). After 14 days, tumors were established at the size of 0.4 cm^2, and mice were divided into 4F-benzoyl-TN14003-treated (8 mg/Kg, open squares) and PBS-treated (control, full diamonds) groups. The 4F-benzoyl-TN14003 drug solution was administered intraperitoneal (i.p) each day for 5 days, followed by 2 days without drug, and then 4 additional daily injections (total of 9 injections, FIG. 16).
# To further test the effect of 4F-benzoyl-TN14003 against human leukemic cells, 5×10^6 NB4 cells were injected subcutaneously (s.c) into immunodeficient nude mice (n=5). After 14 days, tumors were very small, at the size of 0.02 cm^2, and mice were divided into 4F-benzoyl-TN14003-treated (open squares) and PBS-treated (control, full diamonds) groups. The 4F-benzoyl-TN14003 drug solution was administered subcutaneously (8 mg/Kg) each day for 4 days (total of 4 injections, FIG. 17A). On day 20, all control mice developed tumors (0.49±0.1 cm^2), whereas in the treated mouse group, only 1 mouse developed a small tumor.
# On day 31, all control mice developed big tumors in size (FIG. 17A) and weight (FIG. 17B), whereas in the treated group, 4/5 mice developed smaller tumors in size and weight.
# K562L cells = test: K562L (luciferase) CML model, CCCD camera; format: in vivo, NOD/SCID mice
# Experimental: In order to monitor the progression and localization of leukemic cells in vivo, the human CML tumor cell lines K562 (K562L) was stably transduced with a retrovirus carrying the luciferase gene. This cell line was injected IP into NOD/SCID mice (2.5×10^5, 5×10^5, 10^6, 2×10^6 per mouse; FIGS. 18 A-D, respectively) that were pretreated with a sub-lethal dose of radiation in order to diminish any natural killer cell activity and enhance acceptance of the tumor cells. Twenty-four hr after injection of the cells, the light generated internally by the luciferase expressed in the tumor cells and then transmitted through the animal's tissues was monitored externally using a cooled charge-coupled device camera (CCCD). The substrate luciferin was provided exogenously via IP injection. […] Quantitation was achieved by integrating the signal intensity using the Metaview software.
# Two therapeutic approaches were studied using this model. […] In addition, the effect of 4F-benzoyl-TN14003 on the growth of cells in vivo was investigated.
# Further, the effect of 4F-benzoyl-TN14003 on K562L tumor development was studied. 4F-benzoyl-TN14003 was injected i.p into NOD/SCID mice in the amount of 4 mg/Kg per mouse/per injection. The first injection of 4F-benzoyl-TN14003 was given immediately after the injection of K562-luc cells in an opposite route of injection on the peritoneum. Further injections of 4F-benzoyl-TN14003 were given every three days. Mice were monitored under the CCCD camera, 24 hr after each injection at serial time points, every three days.
# 4F-benzoyl-TN14003 was injected i.p into NOD/SCID mice in the amount of 2 mg/Kg whereas AMD-3100 was injected 4 mg/Kg per mouse/per injection. The first injection was given 2 days after the injection of K562-luc cells. Further injections were given on days 5, 7 and 11. Mice (n=3) were monitored under the CCCD camera on day 17 after injection of cells.
# ARH77 = test: Proliferation and apoptosis (annexin) of ARH77 MM cells; format: cell-based, human; conditions: 4F-benzoyl-TN14003 0.4-40 μM
# K562-CXCR4 = test: Proliferation and apoptosis (Annexin V) of K562 cells over-expressing CXCR4; format: cell-based, human; conditions: K562 high CXCR4; 4F-benzoyl-TN14003 4-20 μM
# From the text: (§1) The proliferation and survival of the CML K562 cells or K562 cells that over-express CXCR4 (indicated “CXCR4 high” or “K562-CXCR4”) was first studied.
# SKBR3 = test: Proliferation of SKBR3 breast carcinoma cells; format: cell-based
# BM derived CD34+ cells = test: Survival of CD34+ cells in BM samples of MM patients; format: cell-based, human; conditions: 8 μM, 24 hr
# K562 cells = test: Proliferation and apoptosis (Annexin V) of CML K562 cells; format: cell-based, human; conditions: K562 (low CXCR4); 4F-benzoyl-TN14003 4-20 μM
# From the text: as §1
# Jurkat cells = test: Migration of Jurkat cells in response to CXCL12; format: cell-based, human; conditions: CXCL12 50 ng/ml; peptide incubated with Proteinase K
# From the text: AMD3100 was purchased from Sigma, Israel.
# U266 = test: Proliferation and apoptosis (annexin) of U266 MM cells; format: cell-based, human; conditions: 4F-benzoyl-TN14003 0.4-40 μM
# NB4 cells = test: Proliferation of NB4 AML cells; format: cell-based, human; conditions: compared with HL-60
# NCI human MM cells = test: Proliferation and apoptosis (annexin) of NCI MM cells; format: cell-based; conditions: 4F-benzoyl-TN14003 0.4-40 μM
smiles,measurement,setting,value
"N=C(N)NCCC[C@H](NC(=O)[C@@H]1CSSC[C@H](NC(=O)[C@H](Cc2ccc3ccccc3c2)NC(=O)[C@H](CCCNC(=N)N)NC(=O)[C@H](CCCNC(=N)N)NC(=O)c2ccc(F)cc2)C(=O)N[C@@H](Cc2ccc(O)cc2)C(=O)N[C@@H](CCCNC(N)=O)C(=O)N[C@@H](CCCCN)C(=O)N[C@H](CCCCN)C(=O)N2CCC[C@H]2C(=O)N[C@@H](Cc2ccc(O)cc2)C(=O)N[C@@H](CCCNC(=N)N)C(=O)N[C@@H](CCCNC(N)=O)C(=O)N1)C(N)=O [4F-benzoyl-TN14003, 4F-benzoyl-Arg-Arg-Nal-Cys-Tyr-Cit-Lys-DLys-Pro-Tyr-Arg-Cit-Cys-Arg-NH2] ({Benzoyl(4-F)}-RR[2Nal]CY[Cit]K[dK]PYR[Cit]CR-NH2; disulfide 4-13)",tumor cell death of glioma cells,U87 glioma cells,induce tumor cell death
same,proliferation and survival of keratinocytes,[1],not inhibited
same,apoptotic cell death (Annexin V assay),HL-60 cells,stimulate apoptotic cell death
same,growth,HL-60 cells,inhibit the growth
same,mice that developed smaller tumors in size and weight on day 31,human NB4 leukemic cells; 8 mg/Kg s.c. each day for 4 days,4/5
same,mice that developed a tumor on day 20,"human NB4 leukemic cells; 8 mg/Kg s.c. each day for 4 days, n=5, all control mice developed tumors",1
same,tumor growth,"human NB4 leukemic cells; established tumors 0.4 cm^2, 8 mg/Kg i.p., 9 injections",tumor growth was arrested
same,inhibition in K562L tumor development,"K562L cells; 2 mg/Kg i.p. days 2, 5, 7, 11, day 17, FIG. 21",> 90%
same,inhibition in K562L tumor development over time,"K562L cells; 4 mg/Kg i.p. every three days, FIG. 20",50%
same,apoptotic cell death (annexin assay),ARH77,stimulated apoptotic cell death
same,growth,ARH77,inhibited the growth
same,apoptotic cell death (Annexin V assay),K562-CXCR4,stimulated apoptotic cell death
same,growth,K562-CXCR4,inhibited the growth
same,proliferation,SKBR3,either stimulated or not affected
same,percentage of CD34+ cells,BM derived CD34+ cells,remained unaffected
same,apoptotic cell death (Annexin V assay),K562 cells,stimulated apoptotic cell death
same,growth,K562 cells,inhibited the growth
same,activity on migration of Jurkat cells in response to CXCL12 after treatment of the peptide with proteinease K,Jurkat cells,abolished the activity of the peptide
same,apoptotic cell death (annexin assay),U266,stimulated apoptotic cell death
same,growth,U266,inhibited the growth
same,sensitivity of NB4 cells (inhibitory effect),NB4 cells,less sensitive
same,apoptotic cell death (annexin assay),NCI human MM cells,stimulated apoptotic cell death
same,growth,NCI human MM cells,inhibited the growth
